Earlier results in US6284909A, “Preparations of thiophosphites and thiophosphonates” (University of Southern California, priority 2000, dated 2001).
Where two headings read alike, the source gives them in different places.

Experiments:
[1] = clinical trials
[2] = clinical trials; remark: listed apart in the source
[3] = system: HIV-1
[4] = system: HIV reverse transcriptase
[5] = system: HIV
[6] = system: CMV; details: in culture
[7] = system: HIV; details: U.S. Pat. Nos. 5,072,032 and 5,183,812
[8] = system: H9 cells; details: at effective antiviral doses
[9] = system: human DNA polymerases
[10] = system: Herpesvirus DNA polymerases
[11] = system: DNA polymerase of Cytomegalovirus (CMV)

| Compound | characterization of nephrotoxicity: serum creatinine [1] | characterization of nephrotoxicity: tubulopathy [1] | nephrotoxicity [1] | oral bioavailability [2] | inhibition of HIV-1 [3] | selectivity of inhibition of isolated HIV RT ([4]; in vitro, vs human DNA polymerases) | IC50 ([4]; isolated HIV RT, in vitro, Thiovir, read-out: IC50) [nM] | antiviral activity against HIV compared to DNA polymerase inhibiting activity [5] | antiviral activity against CMV-infected cells [6] | effectiveness against HIV, the AIDS virus [7] | toxicity to cultured H9 cells [8] | IC50 ([4]; trisodium phosphonoformate, known, read-out: IC50 (HIV reverse transcriptase)) [nM] | inhibition of human DNA polymerases, compared with Thiovir [9] | inhibition of several Herpesvirus DNA polymerases [10] | inhibition of the DNA polymerase of Cytomegalovirus (CMV) [11] |
| --- | --- | --- | --- | --- | --- | --- | --- | --- | --- | --- | --- | --- | --- | --- | --- |
| O=C(O)P(=O)(O)O [PFA, phosphonoformic acid] | increased serum creatinine | acute toxic tubolopathy | reversible nephrotoxity | poor | shown to inhibit HIV-1 | – | – | – | – | – | – | – | – | – | – |
| O=C(O)P(O)(O)=S [Thiovir®, trisodium thiophosphonoformate] | – | – | – | – | – | selectively inhibited | ~1000 | unexpectedly high antiviral activity against HIV | exhibited antiviral activity against CMV-infected cells | effective against HIV | non-toxic | – | – | – | – |
| O=C(O)P(=O)(O)O [foscarnet, Trisodium phosphonoformate] | – | – | – | – | – | – | – | – | – | – | non-toxic | ~1000 | more inhibitory to human DNA polymerases | inhibit several Herpesvirus DNA polymerases | inhibit |
